Patent US12723064B2, “Treating Alzheimer's disease” (Yeda Research and Development Co. Ltd., priority 2020, dated 2026)
Entries after “also recorded” stand apart in the source; their conditions may differ.

Columns and labels:
APP-Tau binding = molecular target: T1, APP-Tau binding (Homo sapiens, UniProt P10636); experiment: ELISA: peptide inhibition of Tau and APP protein binding; conditions: peptides or combinations 1 μg/ml, four hours at RT before APP protein; anti Aß detection
T1 construct: purchased Bio-Legend US
Procedure: An ELISA plate (96 wells) was coated with Tau protein 1 μg/ml in bicarbonate PH=8.2 50 μl/well, then incubated overnight at 4° C. Peptides and their combinations were also incubated overnight at 4° C. in PBS 1 μg/ml. The next day, the plate was washed 3× with PBS and blocked with 3% BSA/PBS for two hours at RT. The plate was washed again 3× with PBS and peptides or their combinations 50 ul/well were added for four hours at RT. The plate was washed again 3× with PBS and APP protein, 1 μg/ml 50 μl/well was added for ON incubation at 4° C. The next day, the plate was washed 3× with PBS, following which anti Aß 1-16 (1 mg/ml) was added (1:500 dilution 50 μl/well) for two hours at RT. The plate was washed again and anti-mouse HRP antibodies (1:10,000 dilution in PBS 1% BSA) added at 50 μl/well. Color reaction was stopped with 50 μl/well of 1M H2S04 and read at 0.D. 450.

Tau = conditions: previously reported (19); cited from earlier work
hippocampus = experiment: Number of elements and % of area in the hippocampus (Table 3); assay type: in vivo, mice
Procedure: Mice were sacrificed (trans-cardially punctured, and saline-perfused). The right brain hemisphere of each mouse was stored at −70° C. to quantify Aβ levels. The left hemispheres were fixed (4% paraformaldehyde) and prepared for paraffin blocks which were cut into six micron sagittal sections and used for histological staining and examination. Sagittal brain sections were stained with Congo red dye (Sigma-Aldrich) and visualized by fluorescence microscopy. Quantification of amyloid depositions was done for the whole hippocampal area in a blinded fashion using Imaging Research software from the National Institutes of Health in an unbiased stereological approach.

mice = experiment: Y maze behavior test of APP1 peptide flexibly linked to Tau peptide; assay type: in vivo; conditions: treated mice vs control treated mice (PBS), FIG. 6
Source text: The Y-maze test (45) consists of two trials, first “training” and second “retention”, separated by an inter-trial interval (ITI). Each arm of the Y-maze was equipped with a guillotine door that could be operated manually. The three identical arms were randomly designated as follows: the “start” (steam) arm, in which the mouse began to explore the maze (always open); the “Novel” arm, which was closed off during the first trial, but open in the second one; and the “other” arm (always open). The first (training) trial lasted five minutes and allowed the mouse to explore only two arms (“start” and “other”) of the maze. Access to the third (“Novel”) arm was blocked. The second trial (retention) was conducted after a two minute ITL. During this three minute trial, all three arms were accessible. The mouse was returned to the same starting arm and was allowed to explore all three arms. Retention was scored as a preferential index to the “Novel” arm, that was calculated as follows: time spent in the “Novel” arm minus the time spent in the old arm divided by the sum of time spent in both arms (46).
An additional experiment was carried out testing the effects of the APP1 peptide flexibly linked to the TAU peptide on behavior as tested in the Y maze.

T1 sequence (P10636 1-441 isoform P10636-8): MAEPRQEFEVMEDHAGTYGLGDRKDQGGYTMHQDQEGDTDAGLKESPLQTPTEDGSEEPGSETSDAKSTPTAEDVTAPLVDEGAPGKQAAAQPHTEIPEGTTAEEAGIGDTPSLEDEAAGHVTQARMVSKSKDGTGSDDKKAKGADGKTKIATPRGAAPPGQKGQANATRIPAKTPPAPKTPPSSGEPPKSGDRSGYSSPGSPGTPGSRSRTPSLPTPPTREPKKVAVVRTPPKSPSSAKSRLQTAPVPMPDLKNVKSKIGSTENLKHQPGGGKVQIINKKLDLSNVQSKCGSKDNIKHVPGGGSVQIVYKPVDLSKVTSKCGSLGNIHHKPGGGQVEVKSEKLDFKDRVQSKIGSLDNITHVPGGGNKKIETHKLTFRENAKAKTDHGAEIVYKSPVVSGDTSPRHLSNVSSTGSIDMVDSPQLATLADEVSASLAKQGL

| inhibition of APP protein binding to Tau coated plate (APP-Tau binding) | Sequence | binding to Tau (Tau) | % of area (hippocampus) [%] | Number of elements (hippocampus) | Y maze preferential index (cognitive ability) (mice) |
| --- | --- | --- | --- | --- | --- |
| not inhibited | ATVIVITLVMLKKKQYTS [APP2, reference compound] | bind Tau | – | – | – |
| not inhibited | GLGDRKDQGGYTMHQD [Tau1, synthetic peptide from N-terminal end of Tau protein (residues 19-34)] | – | – | – | – |
| – | HFQKAKERLEAKHRERMSQVMREGGGGSGGGGSGGGGSGLGDRKDQGGYTMHQD (example of a peptide which comprises an APP derived peptide linked by a flexible peptide linker to a TAU derived peptide) | – | 1.9 | 112 | improve |

| Sequence | inhibition of APP protein binding to Tau coated plate (APP-Tau binding) | binding to Tau (Tau) | % of area (hippocampus) [%] | Number of elements (hippocampus) | Y maze preferential index (cognitive ability) (mice) |
| --- | --- | --- | --- | --- | --- |
| HFQKAKERLEAKHRERMSQVMRE [APP1, synthetic peptide from APP protein, APP1 (390-412)] | significant but partial inhibition; also recorded: significant, but partial inhibition | – | – | – | – |
